Results taken from US20070270399A1, “New compounds 302” (priority 2006, published 2007).

Columns and labels:
[1] = target: CYP3A4 (Homo sapiens, UniProt P08684); test: CYP3A4 inhibition according to Bapiro et al; format: in vitro ADME
Procedure: The IC50 values tested according to Bapiro et al; Drug Metab. Dispos. 29, 30-35 (2001) were generally greater than 50 μM.

[2] = Metabolic stability in liver microsomes (intrinsic clearance); format: in vitro ADME; details: human, pH 7.4, 37° C., read-out: CLint (HLM)
Procedure: The metabolic stability of compounds according to formula I can be determined as described below: […]
The rate of biotransformation can be measured as either metabolite(s) formation or the rate of disappearance of the parent compound. The experimental design involves incubation of low concentrations of substrate (usually 1.0 μM) with liver microsomes (usually 0.5 mg/ml) and taking out aliquotes at varying time points (usually 0, 5, 10, 15, 20, 30, 40 min.). The test compound is usually dissolved in DMSO. The DMSO concentration in the incubation mixture is usually 0.1% or less since more solvent can drastically reduce the activities of some CYP450s. Incubations are done in 100 mM potassium phosphate buffer, pH 7.4 and at 37° C. Acetonitrile or methanol is used to stop the reaction. The parent compound is analysed by HPLC-MS. From the calculated half-life, t1/2, the intrinsic clearance, Clint, is estimated by taking microsomal protein concentration and liver weight into account.

[3] = target: hERG-encoded potassium channel (Homo sapiens, UniProt Q12809); test: Activity against hERG (planar-array-based voltage clamp); format: cell-based
Sequence of hERG-encoded potassium channel (Q12809 whole entry): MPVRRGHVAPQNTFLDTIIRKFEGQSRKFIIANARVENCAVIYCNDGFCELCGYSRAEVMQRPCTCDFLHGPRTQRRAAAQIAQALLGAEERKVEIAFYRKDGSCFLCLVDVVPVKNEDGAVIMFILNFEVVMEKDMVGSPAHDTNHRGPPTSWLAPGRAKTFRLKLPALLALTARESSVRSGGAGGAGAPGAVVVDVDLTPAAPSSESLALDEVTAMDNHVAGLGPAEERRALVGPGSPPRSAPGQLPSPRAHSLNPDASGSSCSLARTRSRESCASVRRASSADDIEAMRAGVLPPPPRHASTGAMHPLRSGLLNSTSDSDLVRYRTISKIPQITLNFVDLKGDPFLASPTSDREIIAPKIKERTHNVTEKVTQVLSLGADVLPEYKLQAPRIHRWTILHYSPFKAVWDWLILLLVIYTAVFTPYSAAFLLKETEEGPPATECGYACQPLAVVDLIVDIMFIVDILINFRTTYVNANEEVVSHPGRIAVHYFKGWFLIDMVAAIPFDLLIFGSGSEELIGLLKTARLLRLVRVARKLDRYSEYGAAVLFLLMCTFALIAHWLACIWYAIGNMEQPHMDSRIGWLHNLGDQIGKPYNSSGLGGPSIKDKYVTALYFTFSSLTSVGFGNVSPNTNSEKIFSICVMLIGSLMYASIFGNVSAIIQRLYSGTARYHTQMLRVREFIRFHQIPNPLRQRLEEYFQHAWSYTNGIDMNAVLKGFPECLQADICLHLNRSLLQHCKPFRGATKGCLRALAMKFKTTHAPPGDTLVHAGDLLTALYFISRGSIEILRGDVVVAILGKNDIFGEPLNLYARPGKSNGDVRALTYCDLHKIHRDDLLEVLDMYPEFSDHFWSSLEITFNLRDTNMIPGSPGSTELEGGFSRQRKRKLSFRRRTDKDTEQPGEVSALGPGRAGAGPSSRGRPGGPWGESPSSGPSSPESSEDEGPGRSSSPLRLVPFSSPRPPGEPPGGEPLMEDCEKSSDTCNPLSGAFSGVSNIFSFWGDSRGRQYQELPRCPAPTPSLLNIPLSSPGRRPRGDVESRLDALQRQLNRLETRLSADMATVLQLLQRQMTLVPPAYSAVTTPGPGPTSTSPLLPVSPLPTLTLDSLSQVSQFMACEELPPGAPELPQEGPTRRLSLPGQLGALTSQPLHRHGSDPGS
Procedure: The activity of compounds according to formula I against the hERG-encoded potassium channel can be determined according to Kiss L, et al. Assay Drug Dev Technol. 1 (2003), 127-35: “High throughput ion-channel pharmacology: planar-array-based voltage clamp”.
The IC50 values tested as described above were generally greater than 8 μM.

[4] = target: T1, human NK2 receptor (Homo sapiens, UniProt P21452); test: FLIPR assay, inhibition of human NK2 receptor activation (intracellular Ca2+); format: cell-based; details: CHO cells with human NK2 receptor, NKA agonist at approx. EC60; pKB converted from IC50
T1 construct: expressed in transfected cells; host or cells: CHO K1 cells (ATCC), pRc/CMV vector
T1 sequence (P21452 1-398): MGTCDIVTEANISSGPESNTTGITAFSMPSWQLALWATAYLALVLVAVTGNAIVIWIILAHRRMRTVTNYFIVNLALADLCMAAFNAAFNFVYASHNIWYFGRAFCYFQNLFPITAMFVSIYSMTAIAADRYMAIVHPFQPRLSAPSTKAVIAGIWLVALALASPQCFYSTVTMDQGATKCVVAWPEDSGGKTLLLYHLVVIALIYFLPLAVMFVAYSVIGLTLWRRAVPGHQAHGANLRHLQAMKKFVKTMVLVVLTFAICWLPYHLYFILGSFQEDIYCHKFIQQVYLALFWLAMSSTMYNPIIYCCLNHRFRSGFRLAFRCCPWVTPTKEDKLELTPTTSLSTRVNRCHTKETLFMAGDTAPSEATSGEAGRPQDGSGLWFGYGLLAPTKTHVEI
Procedure: (§1) Chinese Hamster Ovary (CHO) K1 cells (obtained from ATCC) were stably transfected with the human NK2 receptor (hNK2R cDNA in pRc/CMV, Invitrogen) or the human NK3 receptor (hNK3R in pcDNA 3.1/Hygro (+)/IRES/CD8, Invitrogen vector modified at AstraZeneca EST-Bio UK, Alderley Park). The cells were transfected with the cationic lipid reagent LIPOFECTAMINE™ (Invitrogen) and selection was performed with Geneticin (G418, Invitrogen) at 1 mg/ml for the hNK2R transfected cells and with Hygromycin (Invitrogen) at 500 μg/ml for the hNK3R transfected cells. Single cell clones were collected by aid of Fluorescence Activated Cell Sorter (FACS), tested for functionality in a FLIPR assay (see below), expanded in culture and cryopreserved for future use. CHO cells stably transfected with human NK1 receptors originates from AstraZeneca R&D, Wilmington USA. Human NK1 receptor cDNA (obtained from RNA-PCR from lung tissue) was subcloned into pRcCMV (Invitrogen). Transfection was performed by Calcium Phosphate and selection with 1 mg/ml G418. […]
(§2) The activity of a compound of the invention to inhibit NK1/NK2/NK3 receptor activation measured as NK1/NK2/NK3 receptor mediated increase in intracellular Ca^2+ was assessed by the following procedure: […]

[5] = target: T2, human NK1 receptor (Homo sapiens, UniProt P25103); test: FLIPR assay, inhibition of human NK1 receptor activation (intracellular Ca2+); format: cell-based; details: CHO cells with human NK1 receptor, Substance P agonist at approx. EC60; pKB converted from IC50
T2 construct: expressed in transfected cells; host or cells: CHO cells (AstraZeneca R&D, Wilmington USA), pRcCMV vector
T2 sequence (P25103 whole entry): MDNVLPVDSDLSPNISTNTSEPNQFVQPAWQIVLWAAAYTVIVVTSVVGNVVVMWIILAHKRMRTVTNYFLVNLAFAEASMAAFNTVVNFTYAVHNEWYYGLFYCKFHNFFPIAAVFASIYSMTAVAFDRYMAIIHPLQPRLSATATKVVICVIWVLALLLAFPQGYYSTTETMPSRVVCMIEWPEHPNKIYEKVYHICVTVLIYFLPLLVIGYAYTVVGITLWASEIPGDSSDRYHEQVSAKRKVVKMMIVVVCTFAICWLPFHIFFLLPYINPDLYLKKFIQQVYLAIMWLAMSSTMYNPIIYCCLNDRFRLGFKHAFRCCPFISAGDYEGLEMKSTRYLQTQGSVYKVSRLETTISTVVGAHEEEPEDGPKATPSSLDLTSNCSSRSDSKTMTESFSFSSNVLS
Procedure: as §1, §2

[6] = target: T3, human NK3 receptor (Homo sapiens, UniProt P29371); test: FLIPR assay, inhibition of human NK3 receptor activation (intracellular Ca2+); format: cell-based; details: CHO cells with human NK3 receptor, Pro-7-NKB agonist at approx. EC60; pKB converted from IC50
T3 construct: expressed in transfected cells; host or cells: CHO K1 cells (ATCC), pcDNA 3.1/Hygro (+)/IRES/CD8 vector
T3 sequence (P29371 1-465): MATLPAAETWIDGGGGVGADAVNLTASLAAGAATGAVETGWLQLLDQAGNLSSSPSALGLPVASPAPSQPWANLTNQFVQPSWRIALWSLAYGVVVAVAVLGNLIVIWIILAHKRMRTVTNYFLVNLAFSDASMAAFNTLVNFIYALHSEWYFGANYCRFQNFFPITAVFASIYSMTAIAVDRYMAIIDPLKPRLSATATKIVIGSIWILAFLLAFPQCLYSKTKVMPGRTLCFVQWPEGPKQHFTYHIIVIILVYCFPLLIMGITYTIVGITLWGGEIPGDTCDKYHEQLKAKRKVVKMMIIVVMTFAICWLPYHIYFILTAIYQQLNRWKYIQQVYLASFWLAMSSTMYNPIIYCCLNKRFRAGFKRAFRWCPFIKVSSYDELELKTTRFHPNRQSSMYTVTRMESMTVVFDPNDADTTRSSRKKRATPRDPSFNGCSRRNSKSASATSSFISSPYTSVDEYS
Procedure: as §1, §2

Sequence of CYP3A4 (P08684 whole entry): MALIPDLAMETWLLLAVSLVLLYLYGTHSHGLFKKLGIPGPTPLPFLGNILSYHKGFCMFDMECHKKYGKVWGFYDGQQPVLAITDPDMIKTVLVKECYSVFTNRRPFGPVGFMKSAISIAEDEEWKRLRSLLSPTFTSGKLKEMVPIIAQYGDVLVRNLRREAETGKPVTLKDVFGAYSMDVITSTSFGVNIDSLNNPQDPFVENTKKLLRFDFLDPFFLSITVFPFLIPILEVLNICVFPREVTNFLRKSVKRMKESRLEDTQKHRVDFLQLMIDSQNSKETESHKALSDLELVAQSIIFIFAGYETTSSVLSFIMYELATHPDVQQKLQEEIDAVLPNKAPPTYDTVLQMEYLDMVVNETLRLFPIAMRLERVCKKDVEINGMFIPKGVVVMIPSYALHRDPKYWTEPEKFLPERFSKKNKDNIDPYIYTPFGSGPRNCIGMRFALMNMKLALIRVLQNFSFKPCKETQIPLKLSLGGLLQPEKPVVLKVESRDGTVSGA

Compound: CN(C[C@@H](CCN1CC(N2CCOCC2)C1)c1ccc(F)cc1)C(=O)c1cc(Cl)cc(C(F)(F)F)c1 [Ex1, 3-Chloro-N-[(2S)-2-(4-fluorophenyl)-4-(3-morpholin-4-ylazetidin-1-yl)butyl]-N-methyl-5-(trifluoromethyl)benzamide]
- IC50 [1]: > 50000 nM
- microsomal CLint at 1 μM [2]: 39 µL/min/mg
- IC50 [3]: 8500 nM
- Kb [4]: 50.1 nM
- Kb [5]: 25.1 nM
- Kb [6]: 126 nM
